Measured values taken from patent publication US5086054A, “Novel arylcycloalkanepolyalkylamines” (SRI International, priority 1990, dated 1992).
Like-named read-outs stand apart in the source and are kept apart here.

How the values were obtained:
PCP RECEPTOR = test: PCP receptor binding assay ([3H]-TCP displacement, brain membranes); set-up: species or system guinea-pig (male Hartley); conditions: for IC50: read-out: PCP RECEPTOR IC50
Description: (§1) This example illustrates testing of compounds in receptor binding assays.
(§2) Frozen brains from male Hartley guinea-pigs were obtained from Pel-Freeze (Rogers, Arkansas).
(§3) The brains plus cerebella were homogenized in 10 volumes (v/w) of 0.1M, pH 7.4, ice-cold Tris-HCl buffer with a Brinkmann polytron at setting 4 for 20 seconds. The homogenates were centrifuged at 20,000×g for 20 minutes at 4° C. The pellets were suspended in 10 volumes of ice-cold water and, after sitting on ice for 10 minutes, were centrifuged 30 minutes at 20,000×g at 4° C. The resulting pellets were resuspended in the above Tris buffer in ratio 1:100 (w/v) for σ receptor assays or in 5 mM Tris-HCl having pH 7.4, for PCP receptor assays. The final suspension was homogenized with a dounce glass-glass tissue grinder Wheaton "200", at small clearance (B), with three strokes before use. Two milliter aliquots of the brain membrane preparation, containing 1.7 mg of protein, were incubated in quadruplicate for one hour at 23° C. with competing mixture of ligand and radioligand. For σ receptors, [^3 H]-d-SKF-10,047, 2 nM was used. For PCP receptors, [^3 H] TCP [^3 H]-1-[1-(2-thienyl)cyclohexyl]piperidine), 1 nM was used. The nonspecific bindings were defined by 0.1 mM d-SKF-10,047 and 0.1 mM phencyclidine respectively for σ and PCP receptors. After incubation, free ligand was separated from bound ligand by rapid filtration through Whatman GF/C filters. The filters had been soaked before use in isoamyl alcohol-saturated water to prevent nonspecific [^3 H]-d-SKF-10,047 binding to the filter. In the PCP receptor assay, the filter was soaked in 0.5% polyethylenimine to reduce the filter binding of [^3 H]-TCP. After filtration, the trapped tissue was washed three times with 4 ml aliquots of 0.1 M ice-cold Tris buffer at pH 7.4 for σ receptors and 5 mM, ice-cold Tris buffer pH 7.4 for PCP receptors. The filters were transferred to 5 ml of liquid scintillation fluid and the retained radioactivity was measured by liquid scintillation spectrometry.
Programs in Biomed. 17:107 (1983)].

SIGMA RECEPTOR = target: T1, SIGMA RECEPTOR (Cavia porcellus, UniProt Q60492); test: Sigma receptor binding assay ([3H]-d-SKF-10,047 displacement, brain membranes); set-up: species or system guinea-pig (male Hartley); conditions: for IC50: read-out: SIGMA RECEPTOR IC50
T1 construct: Two milliter aliquots of the brain membrane preparation, containing 1.7 mg of protein; tissue Pel-Freeze (Rogers, Arkansas); host or cells: guinea-pig brains plus cerebella, membranes
Description: as §1, §2, §3

[1] = Table 2, aryl ring substituents
[2] = Table 1, slope of dose response curve

T1 sequence (Q60492 whole entry): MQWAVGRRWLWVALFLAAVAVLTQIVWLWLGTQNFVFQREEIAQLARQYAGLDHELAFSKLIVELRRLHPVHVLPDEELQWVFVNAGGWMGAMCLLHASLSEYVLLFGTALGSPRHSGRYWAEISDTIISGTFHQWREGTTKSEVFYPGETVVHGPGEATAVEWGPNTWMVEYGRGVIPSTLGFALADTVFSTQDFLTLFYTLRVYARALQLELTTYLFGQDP

Row | Structure (SMILES) | IC50 (PCP RECEPTOR; [1]) [µM] | potency at σ receptors (in words) (SIGMA RECEPTOR) | SIGMA RECEPTOR SLOPE (SIGMA RECEPTOR; Table 2) | IC50 (SIGMA RECEPTOR; [1]) [µM] | also measured
1 | COc1ccc(C2(CN3CCCC3)CCCCC2)cc1OC [Compound 35] | > 25 | poor to reasonable potency at σ sites | 0.66 ± 0.07 | 1.32 | selectivity for σ receptors (in words) (SIGMA RECEPTOR): high selectivity for σ receptors
2 | c1ccc(C2(CN3CCCCC3)CCCC2)cc1 [Compound 44] | – | – | – | – | IC50 (PCP RECEPTOR; Table 3, cycloalkyl ring size): > 25 µM; SIGMA RECEPTOR SLOPE (SIGMA RECEPTOR; Table 3): 1.03 ± 0.04; IC50 (SIGMA RECEPTOR; Table 3, cycloalkyl ring size): 0.995 µM
3 | COc1ccc(C2(CN3CCOCC3)CCCCC2)cc1OC [Compound 38] | > 25 | essentially inactive in both σ and PCP binding assays | – | > 25 | potency at PCP receptors (in words) (PCP RECEPTOR): essentially inactive in both σ and PCP binding assays
4 | Oc1cccc(C2(CN3CCOCC3)CCCCC2)c1 [Compound 36] | > 25 | – | – | > 25 | –
5 | O=C(OCCN1CCCC1)C1(c2ccccc2)CCCC1 [Compound 46] | – | – | – | – | IC50 (PCP RECEPTOR; Table 3, cycloalkyl ring size): > 25 µM; SIGMA RECEPTOR SLOPE (SIGMA RECEPTOR; Table 3): 0.68 ± 0.06; IC50 (SIGMA RECEPTOR; Table 3, cycloalkyl ring size): 0.454 µM
6 | CCN(CC)CC1(c2ccccc2)CCCCC1 [Compound 14] | > 25 | increased potency for σ receptors | 0.66 ± 0.17 | – | potency at PCP receptors (in words) (PCP RECEPTOR): inactive in the PCP receptor assay; IC50 (PCP RECEPTOR; Table 1, mean ± error (n)): > 25 µM; IC50 (SIGMA RECEPTOR; Table 1, mean ± error (n)): 0.208 µM; SIGMA RECEPTOR SLOPE (SIGMA RECEPTOR; [2]): 0.66 ± 0.17
7 | COc1cccc(C2(CN3CCOCC3)CCCCC2)c1 [Compound 37] | > 25 | – | – | > 25 | –
8 | COc1cccc(C2(CN3CCCC3)CCCCC2)c1 [Compound 33] | 0.552 ± 0.02 | – | 0.73 ± 0.08 | 1.19 | –
9 | CN(C)CC1(c2ccccc2)CCCCC1 [Compound 18] | > 25 | increased potency for σ receptors | 0.85 ± 0.07 | 4.13 | potency at PCP receptors (in words) (PCP RECEPTOR): inactive in the PCP receptor assay; IC50 (PCP RECEPTOR; Table 1, mean ± error (n)): > 25 µM; IC50 (SIGMA RECEPTOR; Table 1, mean ± error (n)): 4.13 µM; SIGMA RECEPTOR SLOPE (SIGMA RECEPTOR; [2]): 0.85 ± 0.07
10 | COc1ccc(C2(CN(C)C)CCCCC2)cc1OC [Compound 43] | > 25 | poor to reasonable potency at σ sites | 0.66 ± 0.13 | 9.05 | selectivity for σ receptors (in words) (SIGMA RECEPTOR): high selectivity for σ receptors
11 | Oc1cccc(C2(CN3CCCC3)CCCCC2)c1 [Compound 29] | 1.32 | only slight effect on σ receptor potency | 0.80 ± 0.07 | 1.08 | selectivity for σ receptors (in words) (SIGMA RECEPTOR): selectivity for σ receptors was poor
12 | CCN(CC)CC1(c2ccc([N+](=O)[O-])cc2)CCCCC1 [Compound 39] | > 25 | – | 0.44 ± 0.01 | 0.304 | –
13 | COc1cccc(C2(CN(C)C)CCCCC2)c1 [Compound 42] | > 25 | – | 0.70 ± 0.06 | 2.85 | –
14 | Clc1cccc(C2(CN3CCCC3)CCCCC2)c1 [Compound 32] | 0.867 ± 0.009 | – | 0.73 ± 0.16 | 0.248 | –
15 | COc1ccc(C2(CN3CCCCC3)CCCCC2)cc1 [Compound 27] | > 25 | slightly lower σ receptor potencies | 0.69 ± 0.04 | 0.221 | selectivity for σ receptors (in words) (SIGMA RECEPTOR): substantially increases selectivity for σ receptors
